Data from ChEMBL document CHEMBL1629464, “Aldehyde oxidase: an enzyme of emerging importance in drug discovery” (J Med Chem, 2010).

Key:
Aldehyde oxidase 1 [1] = biological target: T1, Aldehyde oxidase 1 (Macaca fascicularis, UniProt Q5FB27); assay: Inhibition of monkey aldehyde oxidase
T1 sequence (Q5FB27 whole entry): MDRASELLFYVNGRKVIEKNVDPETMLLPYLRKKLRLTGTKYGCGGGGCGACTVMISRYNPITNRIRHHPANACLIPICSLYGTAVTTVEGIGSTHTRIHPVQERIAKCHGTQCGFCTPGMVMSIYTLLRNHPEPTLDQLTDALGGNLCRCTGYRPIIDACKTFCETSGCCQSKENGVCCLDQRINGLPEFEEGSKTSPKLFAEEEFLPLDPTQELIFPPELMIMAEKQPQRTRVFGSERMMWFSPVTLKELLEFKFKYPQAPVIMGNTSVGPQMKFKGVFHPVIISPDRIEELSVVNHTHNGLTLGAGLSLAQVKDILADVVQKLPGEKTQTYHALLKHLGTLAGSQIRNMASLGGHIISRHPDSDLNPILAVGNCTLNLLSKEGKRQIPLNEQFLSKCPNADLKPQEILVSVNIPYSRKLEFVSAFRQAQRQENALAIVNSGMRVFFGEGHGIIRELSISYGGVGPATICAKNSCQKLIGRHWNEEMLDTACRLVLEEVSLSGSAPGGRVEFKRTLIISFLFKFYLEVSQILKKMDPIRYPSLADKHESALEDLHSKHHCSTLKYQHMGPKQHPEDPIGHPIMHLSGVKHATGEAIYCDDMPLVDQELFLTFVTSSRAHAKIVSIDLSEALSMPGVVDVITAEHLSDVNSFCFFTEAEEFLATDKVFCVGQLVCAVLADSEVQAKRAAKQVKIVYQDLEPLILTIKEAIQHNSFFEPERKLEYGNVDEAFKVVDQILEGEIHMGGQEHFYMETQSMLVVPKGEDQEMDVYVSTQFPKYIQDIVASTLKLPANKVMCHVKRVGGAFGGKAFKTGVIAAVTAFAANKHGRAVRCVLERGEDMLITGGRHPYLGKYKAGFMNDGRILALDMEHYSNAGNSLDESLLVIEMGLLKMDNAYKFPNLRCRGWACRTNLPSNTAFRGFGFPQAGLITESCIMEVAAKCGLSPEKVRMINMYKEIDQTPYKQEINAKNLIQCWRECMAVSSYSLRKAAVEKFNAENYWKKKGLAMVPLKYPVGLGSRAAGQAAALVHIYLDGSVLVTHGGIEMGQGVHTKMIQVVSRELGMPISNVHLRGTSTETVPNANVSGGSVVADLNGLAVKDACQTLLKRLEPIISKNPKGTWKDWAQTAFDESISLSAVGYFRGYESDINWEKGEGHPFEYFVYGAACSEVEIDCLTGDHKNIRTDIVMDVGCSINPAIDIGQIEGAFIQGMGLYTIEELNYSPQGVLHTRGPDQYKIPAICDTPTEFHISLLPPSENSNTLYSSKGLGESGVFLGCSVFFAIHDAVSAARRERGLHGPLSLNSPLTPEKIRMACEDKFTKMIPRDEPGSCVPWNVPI

Aldehyde oxidase 1 [2] = biological target: T2, Aldehyde oxidase 1 (Oryctolagus cuniculus, UniProt P80456); assay: Inhibition of rabbit aldehyde oxidase
T2 sequence (P80456 whole entry): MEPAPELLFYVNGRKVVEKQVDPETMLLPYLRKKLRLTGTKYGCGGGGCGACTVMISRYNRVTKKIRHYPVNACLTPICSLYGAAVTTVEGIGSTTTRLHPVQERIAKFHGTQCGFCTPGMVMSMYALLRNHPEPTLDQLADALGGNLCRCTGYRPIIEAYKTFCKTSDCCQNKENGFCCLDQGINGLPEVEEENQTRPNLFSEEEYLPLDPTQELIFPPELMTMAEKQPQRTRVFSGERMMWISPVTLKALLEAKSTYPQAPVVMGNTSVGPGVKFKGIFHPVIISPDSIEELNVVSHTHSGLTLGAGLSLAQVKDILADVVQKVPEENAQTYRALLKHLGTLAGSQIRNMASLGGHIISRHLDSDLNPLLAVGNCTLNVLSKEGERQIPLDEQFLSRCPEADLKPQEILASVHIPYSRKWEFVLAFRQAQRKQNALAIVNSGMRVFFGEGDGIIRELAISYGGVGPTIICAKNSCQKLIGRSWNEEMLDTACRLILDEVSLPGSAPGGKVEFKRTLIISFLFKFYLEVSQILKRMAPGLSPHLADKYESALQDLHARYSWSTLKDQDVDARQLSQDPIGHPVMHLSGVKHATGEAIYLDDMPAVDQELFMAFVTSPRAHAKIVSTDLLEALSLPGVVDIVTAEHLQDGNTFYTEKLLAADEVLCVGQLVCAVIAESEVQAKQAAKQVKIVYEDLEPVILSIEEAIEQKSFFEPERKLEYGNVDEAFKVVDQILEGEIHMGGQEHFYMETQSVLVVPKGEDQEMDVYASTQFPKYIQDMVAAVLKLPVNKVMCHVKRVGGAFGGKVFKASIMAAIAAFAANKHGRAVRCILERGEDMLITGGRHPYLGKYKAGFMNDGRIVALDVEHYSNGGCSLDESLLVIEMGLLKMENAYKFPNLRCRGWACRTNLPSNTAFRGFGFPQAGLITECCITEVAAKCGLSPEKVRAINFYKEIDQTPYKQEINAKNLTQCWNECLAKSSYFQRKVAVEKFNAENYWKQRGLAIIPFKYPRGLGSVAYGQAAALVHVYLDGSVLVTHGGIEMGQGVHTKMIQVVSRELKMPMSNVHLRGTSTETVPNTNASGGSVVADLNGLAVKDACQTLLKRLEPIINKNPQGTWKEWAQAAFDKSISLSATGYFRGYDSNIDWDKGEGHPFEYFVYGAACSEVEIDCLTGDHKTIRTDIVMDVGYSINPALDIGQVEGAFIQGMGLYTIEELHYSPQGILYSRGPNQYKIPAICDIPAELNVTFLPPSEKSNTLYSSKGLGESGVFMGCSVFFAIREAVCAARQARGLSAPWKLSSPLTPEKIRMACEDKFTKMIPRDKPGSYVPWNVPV

| SMILES | IC50 (Aldehyde oxidase 1 [1]) | IC50 (Aldehyde oxidase 1 [2]) |
| --- | --- | --- |
| C[C@]12CC[C@@H]3c4ccc(O)cc4CC[C@H]3[C@@H]1CC[C@@H]2O [ESTRADIOL] | 12 µM | 40 µM |
| OCCN1CCN(CCCN2c3ccccc3Sc3ccc(Cl)cc32)CC1 [PERPHENAZINE] | 3.6 µM |  |
